# Patent publication US20250382298A1, “NITROGEN-CONTAINING COMPOUND AND USE THEREOF” (SUZHOU GENHOUSE BIO CO., LTD., priority 2022, published 2025)
# pEC50, pIC50: −log10 of the molar value. Read-outs that look alike come from different tables or passages of the source.
# Legend:
# [1] = tested on: HT-29 cells; assay: Mitotic index analysis, pH3 expression in HT-29 cells; assay type: cell-based, human; details: Homo sapiens, 24 h treatment
# Description: (§1) HCT-116 and HT-29 cells at the logarithmic growth phase were taken, digested with a cell lysis buffer (trypsin), centrifuged, counted, and seeded into a 96-well plate at an appropriate cell density (20000 cells/well), with 100 μL per well. The surrounding wells were filled with an appropriate amount of PBS to prevent water evaporation. The next day, the cells were treated with the compounds at different concentrations (with a starting concentration of 10 μM, 3-fold diluted to obtain 9 concentration gradients). After 24 h, the medium was aspirated, and the cells were washed twice with 100 μL of PBS. The cells were then fixed with 4% paraformaldehyde and incubated at room temperature for 15 min. The fixative solution was discarded, and the cells were washed with PBS. Then, 150 μL of specialized blocking solution (containing 1% Triton-100) was added to each well for blocking at room temperature for 2 h, and the plate was washed with PBS to remove excess blocking solution. Anti-phistone H3 (pH3) was diluted at a ratio of 1:1000 with a blocking solution containing 0.033% Triton-100, and a blank control group was set up. Then, incubation was performed at 4° C. overnight. The next day, the plate was washed twice with 1×PBST. Anti-rabbit-IgG (H+L) (CST) and DRAQ5 (Thermofisher) were each diluted at an appropriate ratio with a blocking solution containing 0.033% Triton-100 (secondary antibody: 1:2000; DRAQ5: 1:10000). Then, incubation was performed at room temperature for 2 h. The plate was washed twice with 1×PBST and once with PBS. Fluorescence signals at 700 nm and 800 nm were detected using a Li—COR Odyssey two-color near-infrared laser imager. Calculation was performed as follows: pH3 expression (%)=(Cmpd dose/DMSO control)×100. Cmpd dose is the value of the drug treatment group, and DMSO control is the value of the DMSO control group. The EC50 values were determined by fitting using the GraphPad Prism 7.0 software.
# [2] = tested on: OVCAR3 cells; assay: Detection of cell proliferation activity by CCK8 method (OVCAR3); assay type: cell-based
# Text: (§2) This assay can be used to examine the potency of compounds in inhibiting the proliferation of tumor cells (OVCAR3, HT-29, BT-549, HCT-116). A lower IC50 value indicates high potency of the compound as a KIF18A inhibitor in the following assay setup,
# (§3) McCoy's 5A medium purchased from Sangon Biotech; CCK8 kit purchased from Beyotime; OVCAR3, HT-29, HCT-116, and BT-549 cells purchased from Shanghai Fuheng Biotechnology Co., Ltd.; multimode microplate reader (Thermo).
# (§4) Cells at the logarithmic growth phase were taken, digested with a cell lysis buffer (trypsin), centrifuged, counted, and seeded into a 96-well plate at an appropriate cell density (BT549: 1500 cells/well in 1640 medium. HT-29 and HCT-116: 2000 cells/well in McCoy's 5A medium), with 180 μL per well, for a total of 60 wells. The surrounding wells were filled with an equal amount of PBS to prevent water evaporation from the edge wells. The next day after cell plating, the test compounds at different concentration gradients (with an initial final concentration of 10 μM, diluted in a 1:5 gradient to obtain 9 concentration gradients) were added to the wells. Three replicate wells were set up for each concentration point, and a corresponding DMSO negative control group was also set up. Detection: After 96 h of drug treatment, the test cell culture plate was removed from the incubator. All the liquid in the 96-well plate was aspirated, and 100 μL of medium containing 10% CCK8 solution was added to each well. The plate was then incubated at 37° C. for 2 h (the OD450 of the DMSO group reached 1.5 or more), and the absorbance at 450 nm was measured using a microplate reader
# (§5) After the background value was subtracted from the measurement for each well, the inhibition rate was calculated. Inhibition Rate (%)=(1−Sample/Vehicle)×100. Sample is the luminescence value of the drug treatment group, and Vehicle is the luminescence value of the DMSO control group. A sigmoidal dose-survival rate curve was plotted using a non-linear regression model in the GraphPad Prism 7.0 software, and the IC50 values were calculated.
# [3] = molecular target: KIF18A (Homo sapiens (Human), UniProt Q8NI77); assay: KIF18A enzymatic activity inhibition, ADP-Glo kit; assay type: biochemical; details: 4 nM KIF18A, 30 μM ATP
# Chain of KIF18A (Q8NI77 1-467): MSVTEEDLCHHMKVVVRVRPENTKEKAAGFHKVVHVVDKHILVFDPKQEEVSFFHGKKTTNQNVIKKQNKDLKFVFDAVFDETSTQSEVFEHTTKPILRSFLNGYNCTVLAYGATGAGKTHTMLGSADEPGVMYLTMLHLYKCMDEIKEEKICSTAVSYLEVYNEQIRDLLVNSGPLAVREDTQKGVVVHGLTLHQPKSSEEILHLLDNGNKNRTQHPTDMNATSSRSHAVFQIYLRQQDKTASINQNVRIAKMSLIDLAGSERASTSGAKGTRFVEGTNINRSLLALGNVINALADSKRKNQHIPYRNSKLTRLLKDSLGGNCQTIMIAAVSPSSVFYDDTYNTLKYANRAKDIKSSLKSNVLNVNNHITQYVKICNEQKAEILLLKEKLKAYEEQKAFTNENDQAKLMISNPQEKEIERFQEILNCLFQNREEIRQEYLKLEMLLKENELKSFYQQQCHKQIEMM
# Description: In this experiment, an ADP-Glo kit was used to detect the inhibitory activity of the compounds against KIF18A. Each compound was prepared into a 10 mM stock solution with DMSO, which was then diluted at 1:5 to obtain 9 gradients with the initial final concentration set at 10 μM. Meanwhile, a control group and a blank group were also set up. The reaction buffer consisted of 15 mM Tris (pH 7.5), 10 mM MgCl2, and 0.01% Pluronic F-68. 4 nM KIF18A (1467) and the test compound were added to a 384-well plate and incubated at 37° C. for 20 mm. Then, 30 μM ATP was added to initiate the enzymatic reaction, and the plate was incubated at room temperature for 15 min. Finally, the ADP-Glo reagent was added to detect the luminescence intensity, where the luminescence intensity is directly proportional to the ADP content. Inhibition rate (%)=[…]. Sample signal is the value of the compound group, and DMSO signal is the value of the DMSO control group. Then, the inhibition rate at each concentration was calculated, and the IC50 was determined by fitting using the GraphPadPrism 7.0 software.
# [4] = tested on: HT-29 cells; assay: Detection of cell proliferation activity by CCK8 method (HT-29); assay type: cell-based, human; details: CCK8, 96 h
# Text: as §2, §3, §4, §5
# [5] = tested on: HCT-116 cells; assay: Mitotic index analysis, pH3 expression in HCT-116 cells; assay type: cell-based; details: 24 h treatment
# Description: as §1
# [6] = tested on: BT-549 cells; assay: Detection of cell proliferation activity by CCK8 method (BT-549); assay type: cell-based; details: CCK8, 96 h
# Text: as §2, §3, §4, §5
# [7] = Pharmacokinetic test in mice; assay type: in vivo; details: BALB/c mice; for AUC / Cmax / half-life: mouse, plasma; for half-life: read-out: t½ (converted)
# Description: In this example, the pharmacokinetic behavior of the compounds after intravenous injection (IV) and intragastric (PO) administration in BALB/c mice was tested.
# On the day of administration, mice were weighed for actual body weight and the administration volume was calculated. Each compound was tested in two groups with 9 mice in each group; one group was subjected to administration by single intravenous injection, and the other group of mice was subjected to single intragastric administration. Whole blood samples were collected via the orbit at prescribed time points (0.25 h, 0.5 h, 1 h, 2 h, 4 h, 8 h, and 24 h after administration). After blood sample collection, the samples were immediately transferred to labeled commercial sample tubes containing K2-EDTA (0.85-1.15 mg), followed by centrifugation (3200×g, 4° C., 10 min) and plasma collection. The plasma was transferred to a pre-cooled centrifuge tube, frozen in dry ice, and then stored in an ultra-low temperature freezer at −60° C. or lower until the LC-MS/MS analysis.
# Plasma concentrations were determined by the LC-MS/MS method. Plasma drug concentration data for the compounds were processed using a non-compartmental model in the WinNonlin Version 6.3 (Pharsight, Mountain View, CA) pharmacokinetic software. The relevant pharmacokinetic parameters were calculated by a linear-log trapezoidal method.
# [8] = tested on: HCT-116 cells; assay: Detection of cell proliferation activity by CCK8 method (HCT-116); assay type: cell-based; details: CCK8, 96 h
# Text: as §2, §3, §4, §5
# [9] = tested on: OVCAR3 cells; assay: Detection of OVCAR3 cell proliferation activity by CTG method; assay type: cell-based; details: Homo sapiens, OVCAR-3, 168 h, CellTiter-Glo, 7 days
# Text: as §2
# 1640 medium; fetal bovine serum; penicillin/streptomycin antibiotics purchased from Wisent; CellTiter-Glo (chemiluminescence detection reagent for cell viability) reagent purchased from Promega; OVCAR3 cell line purchased from Nanjing Cobioer Biosciences Co., Ltd.; Nivo multimode microplate reader (PerkinElmer),
# OVCAR3 cells were seeded into a white 96-well plate, with 80 μL of cell suspension containing 2000 OVCAR3 cells added to each well. The cell plate was incubated in a CO2 incubator overnight.
# A test compound was 5-fold diluted to the 8th concentration (i.e., from 2 mM to […]) using a multichannel pipette, with duplicate wells set up. To an intermediate plate was added 78 μL of medium, and the serially diluted compound was transferred to the corresponding wells of the intermediate plate at 2 μL/well. The mixture was mixed well and then transferred to the cell plate at 20 μL/well. The concentration of the compound transferred to the cell plate ranged from 10 μM to 0.026 nM. The cell plate was incubated in a CO2 incubator for 7 days. Another cell plate was prepared and read for signal values on the day of compound addition, and these values were used as the maximum values (the Max value in the equation below) in data analysis. To this cell plate was added the chemiluminescence detection reagent for cell viability at 25 μL/well, and the luminescence signals were stabilized by incubation at room temperature for 10 min. Readings were taken using the multimode microplate reader.
# To the cell plate was added the chemiluminescence detection reagent for cell viability at 25 μL/well, and the luminescence signals were stabilized by incubation at room temperature for 10 mm. Readings were taken using the multimode microplate reader, […]
# [10] = Homo sapiens, OVCAR-3, CCK8, 96 h
pEC50 [1],"pIC50 [2, 10]",pIC50 [3],pIC50 ([4]; Homo sapiens),pEC50 ([5]; Homo sapiens),pIC50 ([6]; Homo sapiens),F ([7]; PO @30mpk) [%],"AUC ([7]; 30 mg/kg, PO @30mpk) [µM·h]","Cmax ([7]; 30 mg/kg, PO @30mpk) [µM]","half-life ([7]; 30 mg/kg, PO @30mpk) [h]",pIC50 ([8]; Homo sapiens),Structure (SMILES),also measured
8.32,8.19,7.59,7.94,< 5.00,7.40,385,221,20.5,8.2,< 5.00,CS(=O)(=O)Nc1ccc(C(=O)Nc2cc3cn[nH]c3c(N3CCC(F)(F)CC3)n2)c(N2CC3CCC(C3)C2)c1 [Compound 69],–
7.70,7.84,7.72,7.39,< 5.00,7.27,–,–,–,–,< 5.00,CS(=O)(=O)Nc1ccc(C(=O)Nc2cn3cnnc3c(N3CCC(F)(F)CC3)n2)c(N2CC3CCC(C3)C2)c1 [Compound 65],"F ([7]; PO @5mpk): 82%; AUC ([7]; 5 mg/kg, PO @5mpk): 19.9 µM·h; Cmax ([7]; 5 mg/kg, PO @5mpk): 3.56 µM; half-life ([7]; 5 mg/kg, PO @5mpk): 3.9 h"
7.06,–,7.03,6.47,< 5.00,6.61,–,–,–,–,< 5.00,Cn1ccc2cc(NC(=O)c3ccc(NS(=O)(=O)CCO)cc3N3CCC4(CC3)CC4)nc(N3CCC(F)(F)CC3)c21 [Compound 18],pIC50 [9]: 7.03
–,7.17,7.20,6.75,< 5.00,6.66,–,–,–,–,< 5.00,O=C(Nc1cc2ncccc2c(N2CCC(F)(F)CC2)n1)c1ccc(NS(=O)(=O)CCO)cc1N1CCC2(CC1)CC2 [Compound 40],–
7.47,7.50,7.02,7.16,< 5.00,7.04,–,–,–,–,< 5.00,CS(=O)(=O)Nc1ccc(C(=O)Nc2cc3nccnc3c(N3CCC(F)(F)CC3)n2)c(N2CCC3(CC2)CC3)c1 [Compound 70],–
7.61,7.69,7.42,7.38,< 5.00,7.11,72,69.1,4.66,3.8,< 5.00,O=C(Nc1cc2nccnc2c(N2CCC(F)(F)CC2)n1)c1ccc(NS(=O)(=O)CCO)cc1N1CC2CCC(C2)C1 [Compound 73],–
6.63,–,6.73,6.88,< 5.00,6.96,–,–,–,–,< 5.00,CC1(S(=O)(=O)Nc2ccc(C(=O)Nc3cn4ccnc4c(N4CCC(F)(F)CC4)n3)c(N3CCC4(CC3)CC4)c2)CC1 [Compound 13],pIC50 [9]: 7.48
7.37,7.28,7.66,7.12,< 5.00,6.68,107,269,14.1,39,< 5.00,CS(=O)(=O)Nc1ccc(C(=O)Nc2cn3c(F)cnc3c(N3CCC(F)(F)CC3)n2)c(N2CC3CCC(C3)C2)c1 [Compound 52],–
7.87,7.79,7.39,7.60,< 5.00,6.92,142,436,23.6,80.8,< 5.00,Cn1ncc2cc(NC(=O)c3ccc(NS(C)(=O)=O)cc3N3CC4CCC(C4)C3)nc(N3CCC(F)(F)CC3)c21 [Compound 56],–
7.57,7.84,7.55,7.47,< 5.00,7.50,44,154,6.98,146,< 5.00,CS(=O)(=O)Nc1ccc(C(=O)Nc2cn3ncnc3c(N3CCC(F)(F)CC3)n2)c(N2CCC3(CC2)CC3)c1 [Compound 57],–

Structure (SMILES),pEC50 [1],"pIC50 [2, 10]",pIC50 [3],pIC50 ([4]; Homo sapiens),pEC50 ([5]; Homo sapiens),pIC50 ([6]; Homo sapiens),F ([7]; PO @30mpk) [%],"AUC ([7]; 30 mg/kg, PO @30mpk) [µM·h]","Cmax ([7]; 30 mg/kg, PO @30mpk) [µM]","half-life ([7]; 30 mg/kg, PO @30mpk) [h]",pIC50 ([8]; Homo sapiens),also measured
O=C(Nc1cn2ccnc2c(N2CCC(F)(F)CC2)n1)c1cnc(NS(=O)(=O)CCO)cc1N1CCC2(CC1)CC2 [Compound 38],–,–,8.12,–,–,–,–,–,–,–,–,"pIC50 ([2]; CCK8, 96 h): 7.92; pIC50 [4]: 6.88; pEC50 [5]: < 5.00; pIC50 [6]: 7.50; pIC50 [8]: < 5.00"
